Test results taken from PubChem BioAssay (NCI).
“And” between values parts separate entries of the source, which are not always exact repeats. Equal values may be shown once.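 Dose response: 5 concentrations. Exposure: 48 h. Format: 96-well plates. Endpoint: linear interpolation; highest concentration if not reached. GI50 marks 50% less growth. TGI marks complete inhibition of growth.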

Experiments:
Test in all cases: inhibition of tumour cell growth, NCI panel, 48 h
[1] = system: HCT-15 colon
[2] = system: HS 578T breast
[3] = system: HT29 colon
[4] = system: K-562 leukemia
[5] = system: MCF7 breast
[6] = system: OVCAR-4 ovarian
[7] = system: OVCAR-5 ovarian
[8] = system: SK-MEL-2 melanoma
[9] = system: SNB-75 CNS
[10] = system: TK-10 renal

Row | Structure (SMILES) | GI50 [1] [µM] | TGI [1] [µM] | GI50 [2] [µM] | TGI [2] | GI50 [3] [µM] | TGI [3] | GI50 [4] | TGI [4] [µM] | GI50 [5] | TGI [5] | GI50 [6] [µM] | TGI [6] [µM] | GI50 [7] | TGI [7] | GI50 [8] | TGI [8] [µM] | GI50 [9] [µM] | TGI [9] | TGI [10] | GI50 [10] [µM]
1 | O=C1c2ccccc2-c2c1c1ccccc1c(=O)n2CCCNCCCNCCCn1c2c(c3ccccc3c1=O)C(=O)c1ccccc1-2 | 0.0605 | 0.196 | 0.0984 | 1.28 µM | < 0.01 | 0.135 µM | 0.0225 µM | 1.22 | 0.0382 µM | 0.18 µM | 0.188 | 1.02 | 0.0763 µM | 0.731 µM | 15 µM | 28.2 | 1.13 | 3.05 µM | 0.732 µM | 
2 | COc1cccc(/C=C/C(=O)c2cccc(Nc3nc(Nc4ccccc4)nc(Nc4ccccc4)n3)c2)c1 | 9.59 | > 100 | 15.8 | 61.7 µM | 4.36 | > 81.7 µM | 3.96 µM | 45.8 | 1.37 µM | 6.91 µM | 19.5 | > 100 | 26.8 µM | > 86.3 µM | > 33.4 µM | > 100 | 11.8 | > 94.8 µM | > 93.1 µM | 41.5
3 | CN(C)S(=O)(=O)c1ccc(NC(=O)COC(=O)c2ccc(S(=O)(=O)N3CCCCC3)cc2)cc1 | > 100 | > 100 | > 100 | > 100 µM | > 100 | > 100 µM | > 100 µM | > 100 | > 100 µM | > 100 µM | > 100 | > 100 | > 100 µM | > 100 µM | > 100 µM | > 100 | > 100 | > 100 µM | > 100 µM | > 100
4 | COc1c(CCC[P+](c2ccccc2)(c2ccccc2)c2ccccc2)cc2c(c1OC)OCO2 | 14.7 | 71.1 | 1.72 | 13.4 µM | 1.08 | 18.8 µM | 0.529 µM | > 100 | 1.12 µM | 10.7 µM | 1.59 | 12.5 | 2.74 µM | 81.2 µM | 3.03 µM | 14.1 | 1.3 | 5.18 µM | 34.7 µM | 4.71
5 | COc1cc(C2c3cc4c(cc3[C@@H](Nc3ccc(C#N)cc3)C3COC(=O)[C@H]23)OCO4)cc(OC)c1O (stereo not given in full) |  | 18 | 3.38 | 29.1 µM and > 100 µM | 1.61 | 11.6 µM and 14 µM | 0.987 µM and 1.85 µM |  | 0.329 µM and 0.188 µM | 40.4 µM and 75 µM and > 100 µM |  | 19.2 | 2.96 µM and 3.3 µM | 31.7 µM and 59.9 µM and > 100 µM | 1.77 µM and 8.87 µM |  | 0.787 | 42.6 µM and 56.3 µM | 17.4 µM and 4.49 µM | 1.62
6 | CC/C=C\C=C/C(=O)N/C=C/CC1Cc2cccc(O)c2C(=O)O1 (stereo not given) | 13.6 | 42 | 28.9 | > 100 µM | 23.5 | 53.7 µM | 11.5 µM | > 100 | 3.87 µM | 49.4 µM | 44.4 | > 100 | 32.5 µM | 99.4 µM | 22.9 µM | > 100 | 16 | > 100 µM | > 100 µM | 62
